# Paper PMC8333425, “Discovery of a dual Ras and ARF6 inhibitor from a GPCR endocytosis screen” (Nature Communications, 2021)
# “And” between values parts separate entries of the source, which are not always exact repeats. Identical values can stand only once. “Also recorded” adds a separate entry of the source.
# Experiments:
# B2R = experiment: Confocal microscopy of YFP-tagged B2R internalization; assay type: cell-based, human; settings: 50 μM; BK
# Experimental: One day before transfection, cells were seeded in 35-mm glass-bottom dishes (MatTek Corporation) at a density of 1 × 10^5 cells per dish. For the recordings of receptor internalization, HEK293 SL cells were transfected with 2 μg of AT1R-YFP. For the recordings of β-arrestin-2 recruitment to the receptor, HEK293SL cells were transfected with 50 ng of β-arrestin2-YFP and 250 ng of Flag-AT1R or HA-B2R. Forty-eight hours post-transfection, cells were serum starved, preincubated with DMSO (0.1% final concentration) or Rasarfin (50 μM) for 30 min at 37 °C. AT1R-expressing cells were stimulated with angiotensinII (AngII; 100 nM) and B2R-expressing cells were stimulated with bradykinin (BK; 1 μM) for 30 min (receptor-YFP) or 15 min (β-arrestin2-YFP). Cells were imaged with Zeiss LSM-510 and/or LSM-710 laser scanning confocal microscope. To detect YFP, […] and BP 505–550 nm emission filter. Images (2048 × 2048) were collected using a 63x oil immersion lens.
# A549 cells = experiment: Cell proliferation assay (IncuCyte confluence), A549; assay type: cell-based, human; settings: for cell confluence (proliferation) / proliferation (confluence): listed as Rasarfin
# Experimental: Cell proliferation was measured by a label-free, non-invasive cellular confluence assay using IncuCyte Live-Cell Imaging Systems (Essen Bioscience, Ann Arbor, MI, USA). MDA-MB-231 breast cancer and A549 lung carcinomas cells (1500 cells in 150 μl/well) were seeded overnight on a clear 96-well plate. Twenty-four hours later, the cells were treated with 0.1% DMSO, or different concentrations of Rasarfin (as indicated), or 10 µM of 21.4 or 21.8 for 96 h total. The plate was placed in an XL-3 incubation chamber maintained at 37 °C and the cells were photographed using a ×4 objective, every 3 h for 4 days. Cell confluence was calculated using IncuCyte S3 software (2019A) and cell proliferation was expressed as an increase in the percentage of confluence. Experiments were done in triplicate and repeated three times.
smiles,measurement,setting,value
CC(C)C(=O)N1CCN(c2ccc(NC(=O)c3cc4ccccc4o3)cc2Cl)CC1 [Compound 21],B2R localization by microscopy,B2R,remained trapped at the PM
same,cell confluence (proliferation),"A549 cells; 0.5μM, 18 hr",9.332 and 9.3043 and 10.3515
same,proliferation (confluence),"A549 cells; 0.5μM, 18 hr",24.4895 and 24.566 and 18.9209
same,cell confluence (proliferation),"A549 cells; 0.5μM, 21 hr",10.4726 and 10.4517 and 11.0087
same,proliferation (confluence),"A549 cells; 0.5μM, 21 hr",27.1666 and 26.6886 and 21.2647
same,cell confluence (proliferation),"A549 cells; 0.5μM, 24 hr",10.2389 and 10.6946 and 11.5243
same,proliferation (confluence),"A549 cells; 0.5μM, 24 hr",32.6256 and 30.048 and 24.569
same,cell confluence (proliferation),"A549 cells; 0.5μM, 27 hr",10.805 and 11.0634 and 12.4799
same,proliferation (confluence),"A549 cells; 0.5μM, 27 hr",37.2681 and 34.654 and 21.9145
same,cell confluence (proliferation),"A549 cells; 0.5μM, 30 hr",11.9152 and 12.485 and 12.9764
same,proliferation (confluence),"A549 cells; 0.5μM, 30 hr",41.4109 and 39.7044 and 23.7331
same,cell confluence (proliferation),"A549 cells; 0.5μM, 33 hr",12.3634 and 12.541 and 13.8499
same,proliferation (confluence),"A549 cells; 0.5μM, 33 hr",46.0502 and 43.4249 and 28.4554
same,proliferation (confluence),"A549 cells; 0.5μM, 36 hr",51.8492 and 49.6782 and 33.7864
same,proliferation (confluence),"A549 cells; 0.5μM, 39 hr",59.4007 and 56.0507
same,cell confluence (proliferation),"A549 cells; 1μM, 18 hr",8.679 and 9.302 and 9.424
same,proliferation (confluence),"A549 cells; 1μM, 18 hr",19.1081 and 18.3715 and 26.7974
same,cell confluence (proliferation),"A549 cells; 1μM, 21 hr",9.1 and 10.4023 and 9.667
same,proliferation (confluence),"A549 cells; 1μM, 21 hr",21.9794 and 20.7173 and 31.1317
same,cell confluence (proliferation),"A549 cells; 1μM, 24 hr",9.619 and 10.4616 and 10.6323
same,proliferation (confluence),"A549 cells; 1μM, 24 hr",24.7962 and 23.1147 and 35.367
same,cell confluence (proliferation),"A549 cells; 1μM, 27 hr",10.2207 and 11.0837 and 11.4063
same,proliferation (confluence),"A549 cells; 1μM, 27 hr",28.2759 and 21.7311 and 40.5461
same,cell confluence (proliferation),"A549 cells; 1μM, 30 hr",12.7027 and 12.0976 and 12.1684
same,proliferation (confluence),"A549 cells; 1μM, 30 hr",31.8721 and 23.9788 and 46.1337
same,cell confluence (proliferation),"A549 cells; 1μM, 33 hr",12.8101 and 12.4309 and 12.7886
same,proliferation (confluence),"A549 cells; 1μM, 33 hr",35.7112 and 29.1451 and 51.7711
same,cell confluence (proliferation),"A549 cells; 1μM, 36 hr",13.5305
same,proliferation (confluence),"A549 cells; 1μM, 36 hr",39.6717 and 33.6517 and 60.1281
same,proliferation (confluence),"A549 cells; 1μM, 39 hr",47.4848 and 40.2179
same,cell confluence (proliferation),"A549 cells; 2μM, 18 hr",9.332 and 13.0386 and 10.4059
same,proliferation (confluence),"A549 cells; 2μM, 18 hr",23.9116 and 20.6158 and 17.6553
same,cell confluence (proliferation),"A549 cells; 2μM, 21 hr",10.4726 and 14.2716 and 10.9627
same,proliferation (confluence),"A549 cells; 2μM, 21 hr",27.3499 and 22.7836 and 20.9361
same,cell confluence (proliferation),"A549 cells; 2μM, 24 hr",10.2389 and 15.0053 and 11.5919
same,proliferation (confluence),"A549 cells; 2μM, 24 hr",32.3505 and 25.0274 and 22.3969
same,cell confluence (proliferation),"A549 cells; 2μM, 27 hr",10.805 and 15.8245 and 11.5779
same,proliferation (confluence),"A549 cells; 2μM, 27 hr",36.576 and 29.0777 and 20.6023
same,cell confluence (proliferation),"A549 cells; 2μM, 30 hr",11.9152 and 18.2698 and 12.1995
same,proliferation (confluence),"A549 cells; 2μM, 30 hr",40.8806 and 32.6797 and 23.0649
same,cell confluence (proliferation),"A549 cells; 2μM, 33 hr",12.3634 and 18.789 and 13.0531
same,proliferation (confluence),"A549 cells; 2μM, 33 hr",45.6439 and 35.4748 and 28.9537
same,cell confluence (proliferation),"A549 cells; 2μM, 36 hr",12.4389 and 19.3831 and 13.6426
same,proliferation (confluence),"A549 cells; 2μM, 36 hr",52.1825 and 39.835 and 32.0484
same,proliferation (confluence),"A549 cells; 2μM, 39 hr",61.5258 and 48.4257 and 38.4343
same,cell confluence (proliferation),"A549 cells; 5μM, 18 hr",10.0859 and 8.906 and 10.6663
same,proliferation (confluence),"A549 cells; 5μM, 18 hr",17.9959 and 26.9316 and 16.8915
same,cell confluence (proliferation),"A549 cells; 5μM, 21 hr",10.2266 and 10.3015 and 11.0904
same,proliferation (confluence),"A549 cells; 5μM, 21 hr",19.5572 and 26.3286 and 18.8493
same,cell confluence (proliferation),"A549 cells; 5μM, 24 hr",11.4115 and 9.856 and 11.3241
same,proliferation (confluence),"A549 cells; 5μM, 24 hr",21.409 and 27.1851 and 17.4154
same,cell confluence (proliferation),"A549 cells; 5μM, 27 hr",11.7245 and 10.4475 and 12.7275
same,proliferation (confluence),"A549 cells; 5μM, 27 hr",22.045 and 28.0966 and 15.1402
same,cell confluence (proliferation),"A549 cells; 5μM, 30 hr",12.7699 and 11.1958 and 12.4012
same,cell confluence (proliferation),"A549 cells; 5μM, 33 hr",12.6309 and 11.193 and 12.7637
same,proliferation (confluence),"A549 cells; 5μM, 33 hr",25.4457 and 25.9951 and 18.0713
same,cell confluence (proliferation),"A549 cells; 5μM, 36 hr",13.1014 and 11.8184 and 13.4133
same,proliferation (confluence),"A549 cells; 5μM, 36 hr",26.9015 and 24.9434 and 20.5372
same,proliferation (confluence),"A549 cells; 5μM, 39 hr",29.6606 and 26.9243 and 22.5988
same,cell confluence (proliferation),"A549 cells; 10μM, 18 hr",8.409 and 7.2062 and 9.084
same,proliferation (confluence),"A549 cells; 10μM, 18 hr",10.5387 and 14.905 and 7.973
same,cell confluence (proliferation),"A549 cells; 10μM, 21 hr",8.837 and 8.143 and 9.362
same,proliferation (confluence),"A549 cells; 10μM, 21 hr",10.701 and 14.8102 and 7.904
same,cell confluence (proliferation),"A549 cells; 10μM, 24 hr",9.479 and 8.1046 and 9.485
same,proliferation (confluence),"A549 cells; 10μM, 24 hr",11.1918 and 15.0497 and 7.616
same,cell confluence (proliferation),"A549 cells; 10μM, 27 hr",9.816 and 8.066 and 10.344
same,cell confluence (proliferation),"A549 cells; 10μM, 30 hr",10.3507 and 8.537 and 10.5983
same,cell confluence (proliferation),"A549 cells; 10μM, 33 hr",10.1924 and 8.993 and 10.9238
same,cell confluence (proliferation),"A549 cells; 10μM, 36 hr",10.249 and 9.152 and 11.0645
same,A549 cell growth (confluency),A549 cells; 5 and 10 µM of Rasarfin,efficiently blocks proliferation; also recorded: efficient A549 cell growth inhibition
